“Also recorded” adds a separate entry of the source.
Tests used:
[1] = Fluorescence titration of cadmium ions in cuvettes; assay type: binding; conditions: 50 mM MOPS pH 7, metal titrated up to 100 μM
Experimental: A dye stock (709 μM) solution of Compound 10 was prepared in DMSO. Lead, cadmium and mercury solutions from 0-100 μM were prepared in disposable cuvettes by diluting a 100 μM metal stock solutions to a final volume of 2 mL with 50 mM MOPS (pH7). The 100 μM metal stocks were also in 50 mM MOPS (pH7). For the cadmium titration, dye stock was added to give a final concentration of 0.35 μM. For the lead and mercury titrations, dye stock was added to give a final concentration of 1.42 μM. Samples were excited at 492 nm and fluorescence was recorded at 517 nm. […] See, FIG. 2.
The experiment was performed as described above except that the exact dye concentrations were unknown. Sample was dissolved in DMSO and diluted 2× in nano-pure H2O before running. Ex./Em. 549/577 nm. […] See, FIG. 1.
The experiment was performed as described above for cadmium ion detection except that the exact dye concentrations were unknown. Ex./Em. 348/397/481 nm (ratiometric).

[2] = test system: intracellular Pb or Cd ions in 3T3 cells; assay: Compound 12 on 3T3 cells with PbCl2 or CdCl2, then TPEN chelation; assay type: cell-based; conditions: 400 nM Compound 12, 1 μM ionomycin
Experimental: 500 nM, 250 nM and 125 nM of PbCl2 and at concentration range 100 uM, 50 μM and 25 μM of CdCl2.
After fluorescence acquisition, TPEN, a cell-permeant heavy metal chelator, was added to the samples.

SMILES | Kd [1] | Change of Compound 12 fluorescence after addition of the chelator [2]
O=C(O)COc1ccccc1OCCOc1cc(-c2cc3ccc(C(=O)O)cc3[nH]2)ccc1N(CC(=O)O)CC(=O)O [Compound 18] | 1200 nM | –
c1ccc(CN(CCN(Cc2ccccn2)Cc2ccccn2)Cc2ccccn2)nc1 [TPEN, tetrakis-(2-pyridylmethyl)ethylenediamine] | – | drop of fluorescence after TPEN addition; also recorded: drop in fluorescence from the viable cells

— patent US8680320B2, “Heavy metal binding compounds and their method of use” (Life Technologies Corporation, priority 2006, dated 2014)
